Measurements from publication PMC5656322, “BAK1 is involved in AtRALF1-induced inhibition of root cell expansion” (PLoS Genetics, 2017).
“Also recorded” adds a separate entry of the source. Where no end group is shown, it is not given here.

Experiments:
[1] = tested on: Arabidopsis seedlings, primary root; experiment: Root growth inhibition assay, vertical plates; format: in vivo, Arabidopsis thaliana
Description: (A) and (B) Arabidopsis seedlings (2 days old) were treated with 10 μM AtRALF1 or water (H20) for 2 days. The values are the mean ± SD of at least 25 seedlings. Triple asterisks indicate P < 0.01 (Student’s t test); ns, not significant. (C) Four-day-old seedlings were transferred to media containing different concentrations of AtRALF1, and the primary root length was measured after 8 days of treatment. The data represent the mean value ± SD of 30 seedlings. […] Representative Arabidopsis seedlings after 8 days of treatment with AtRALF1 are shown below. Seedlings were arranged on plates after the treatment for imaging. Scale bars, 1 cm. (D) Two-day-old seedlings were treated with 10 μM AtRALF1 or water for 2 days, and root cell length was measured after 2 days of treatment. Cells from the root endodermis in the differentiation zone were measured. The values are the mean ± SD of approximately 150 cells. Triple asterisks indicate P < 0.01 (Student’s t test); ns, not significant.
Aliquots of 1 ml of medium containing seeds were distributed into 24-well plates. The peptides (10 μM) were added after 2 days, and the root length was measured 2 days after treatment. To maximize root growth, the seeds were germinated in vertical plates. […] The root length was measured 8 days after treatment unless stated otherwise. Control plants were grown under identical conditions in a peptide-free medium. Quantitative data were obtained as previously described. […] The data from one representative experiment are shown. For cell length measurements, AtRALF1 peptide (10 μM) was added after 2 days of germination, and the cell length was measured after 2 days of treatment. The cell wall was stained with a 1 mg ml^-1 propidium iodide solution (Sigma) in the dark for 15 min and washed twice with water. Cells of the endodermis of the root differentiation zone were imaged and measured using confocal microscopy (Olympus FV1000). Approximately 30 plants from each genetic background and at least 5 cells per root were measured. The wavelengths for excitation and emission were 555 and 655 nm, respectively. Image processing was completed using the Olympus FluoView software.
Supplementary file pgen.1007053.s004.pdf: S4 Fig Analyses of root growth of Arabidopsis seedlings treated with AtRALF1 peptide for 8 days and evaluated daily. Four-day-old seedlings were transferred to media containing different concentrations of AtRALF1, and the primary root length was measured daily during the 8 days of treatment. Genotypes Wt, bak1-1, bak1-3 and bak1-4 are indicated on top of each series of graphics. The seedlings were treated with 0, 0.5, 1, 5 and 10 μM AtRALF1. The data represent the mean values ± SD of 30 seedlings. Double and triple asterisks indicate P < 0.05 and P <0.01, respectively (Student’s t test); ns, not significant. (PDF) Click here for additional data file.
Four-day-old seedlings were transferred to medium containing 10 μM AtRALF1, and the primary root length was measured after 8 days of treatment. The data represent the mean value ± SD of 20 seedlings. Triple asterisks indicate P < 0.01 (Student’s t test); ns, not significant. Representative Arabidopsis seedlings after 8 days of treatment with AtRALF1 are shown. The seedlings were arranged on plates after the treatment for imaging. Scale bars, 1 cm. (PDF) Click here for additional data file.
Four-day-old seedlings were transferred to medium containing 0.1 μM BAP, and the primary root length was measured after 8 days of treatment. The data represent the mean value ± SD of 10 seedlings.

[2] = tested on: intact Arabidopsis seedlings; experiment: Binding assay with acridinium-labeled AtRALF34, intact seedlings; set-up: species or system Arabidopsis thaliana; conditions: 10-fold excess of unlabeled AtRALF1
Description: Arabidopsis seedlings were grown for 5 days on vertical plates. Roots were homogenized in extraction buffer [300 mM sucrose, 100 mM Tris-HCl pH 7.5, 25 mM EDTA, 25 mM NaF, 1 mM Na2MoO4, 1 mM PMSF and protease inhibitor cocktail (Roche), adjusted to pH 6.2], and the homogenate was spun at 2,000 x g for 10 min at 4 °C. The supernatant was recovered and centrifuged at 100,000 x g for 50 min at 4 °C to precipitate the microsomal pellet. The pellet was resuspended in the extraction buffer plus 0.5% Triton-X. Seedlings or microsomal fractions were placed in 200 μl of medium and incubated with 7 nM acridinium-labeled peptide (acriAtRALF1 or acriAtRALF34) and different concentrations of AtRALF1, AtRALF34 or RALF1(9–49) for 15–20 min at 4 °C on a shaker. After incubation, the seedlings or microsomal fractions were washed three times with the same medium. Unless indicated otherwise, five entire seedlings and approximately 10 ng of microsomal fractions were used per treatment. The resulting luminescence emissions from the acridinium were measured using a microplate reader (Biotec ELx 800) at 2 s after injecting 50 μl of a solution containing 20 mM H2O2 in 0.1 M NaOH. These experiments were repeated at least three times using independent biological replicates. Duplicates were used for each concentration or treatment. The data shown are from one representative experiment. […]

[3] = tested on: BAK1 gene promoter / BAK1-GFP; experiment: Quantification of GFP in roots of pBAK1:BAK1-GFP plants; format: in vivo, Arabidopsis thaliana; conditions: 1 μM, 4 h
Description: Transgenic Arabidopsis plants were grown for 4 days in liquid medium and treated with 1 μM AtRALF1 for 4 h. After 4 h of agitation at room temperature, the intensity of GFP in the roots was analyzed by confocal microscopy (Olympus FV1000). Control plants were kept in a peptide-free medium. The GFP excitation wavelength was 488 nm, and the emission wavelength was 540 nm. Images were generated by a scanner depth of 7 μm. Ten slices per root were generated and compacted in one image. Image processing was performed using the Olympus FluoView software. An average of 20 seedlings were observed under the microscope in at least 3 different experiments using independent biological replicates.

## AtRALF1: root-specific RALF isoform in Arabidopsis; recombinant peptide hormone produced in E. coli (ATTKYISYQSLKRNSVPCSRRGASYYNCQNGAQANPYSRGCSKIARCRS; ends and bridges not checked; cysteine pairing not given here)
[1]; 8 days of treatment, bak1-1, bak1-3, bak1-4 mutants
  sensitivity of root growth: insensitive to the AtRALF1 peptide
[1]; bak1-mutant lines, 8-day treatment, 0-10 μM
  daily root growth: No differences were observed in the daily root growth
[1]; bak1 mutants, 8 days
  highest concentration to which bak1 mutants are insensitive: ≥ 10 µM
[1]; bak1 mutants, side by side with fer4, 8 days
  sensitivity of root growth: insensitive to any tested concentrations of the peptide
[1]; bak7 mutant, 10 μM, 8 days
  primary root growth inhibition: inhibited primary root growth
[1]; fer4 mutant, side by side with bak1 mutants, 8 days
  sensitivity of root growth: conditional insensitivity to AtRALF1 treatment; also recorded: insensitive to AtRALF1 peptide in low concentrations only
[1]; wild-type, 0.5-10 μM tested, P < 0.05 / 0.01
  dose with significant differences in root growth by the third day of treatment: ≥ 1 µM
[2]
  effect of unlabeled AtRALF1 on total acriAtRALF34 binding: did not alter the total binding
[3]
  BAK1-GFP fluorescent signal in roots: quantitative increase in fluorescent signal in the roots
